The data set can be described thus: Peptide solubility measurement (micro‐BCA after centrifugation). The data set is classed as physicochemical. Particulars: 200 μM peptide in 10 mM PBS (140 mM KCl), centrifuged 18,000 g 30 min, supernatant by micro‐BCA. Here is the method: Dry peptides were dissolved in HFIP to prepare the stock solutions. The concentrations of the stock solutions were measured by using freeze dried aliquots of the stock solutions with the micro‐BCA assay. Based on the stock solution concentrations, aliquots were prepared and lyophilized. The dry peptides were reconstructed in 10 mM phosphate buffer saline (140 mM KCl), pH 7.4 at a final peptide concentration of 200 μM. Immediately after reconstitution 10 μl of the sample was removed and the soluble peptide concentration was measured using the micro‐BCA assay. […] After 5 days, a 450 μl portion from each sample were removed and centrifuged at 18,000 g for 30 min (25°C). A 100 μl portion of the centrifuged supernatant was subjected to the micro‐BCA assay to calculate the amount of soluble peptide left after 5 days.

This note sets out measurements from paper PMC9847078, “On the plasticity of amyloid formation: The impact of destabilizing small to large substitutions on islet amyloid polypeptide amyloid formation” (Protein Science : A Publication of the Protein Society, 2023).

`CC[C@H](C)[C@H](NC(=O)[C@H](C)NC(=O)[C@H](CC(C)C)NC(=O)[C@H](Cc1ccccc1)NC(=O)[C@H](CC(N)=O)NC(=O)[C@H](CC(N)=O)NC(=O)[C@H](CO)NC(=O)[C@H](CO)NC(=O)[C@H](Cc1c[nH]cn1)NC(=O)[C@@H](NC(=O)[C@H](CC(C)C)NC(=O)[C@H](Cc1ccccc1)NC(=O)[C@H](CC(N)=O)NC(=O)[C@H](C)NC(=O)[C@H](CC(C)C)NC(=O)[C@H](CCCNC(=N)N)NC(=O)[C@H](CCC(N)=O)NC(=O)[C@@H](NC(=O)[C@H](C)NC(=O)[C@@H]1CSSC[C@H](NC(=O)[C@@H](N)CCCCN)C(=O)N[C@@H](CC(N)=O)C(=O)N[C@@H]([C@@H](C)O)C(=O)N[C@@H](C)C(=O)N[C@@H]([C@@H](C)O)C(=O)N1)[C@@H](C)O)C(C)C)C(=O)N[C@@H](CC(C)C)C(=O)N[C@@H](CO)C(=O)N[C@@H](CO)C(=O)N[C@H](C(=O)N[C@@H](CC(N)=O)C(=O)N[C@H](C(=O)NCC(=O)N[C@@H](CO)C(=O)N[C@@H](CC(N)=O)C(=O)N[C@H](C(=O)N[C@@H](Cc1ccc(O)cc1)C(N)=O)[C@@H](C)O)C(C)C)[C@@H](C)O` [G24L‐hIAPP]: the “Apparent solubility compared to wild type hIAPP” value (pH 7.4, 25°C, 5 days, differences not significant (p > 0.05)) is “Slightly higher concentrations”. As to `CC[C@H](C)[C@H](NC(=O)[C@H](C)NC(=O)[C@@H]1CCCN1C(=O)[C@H](Cc1ccccc1)NC(=O)[C@H](CC(N)=O)NC(=O)[C@H](CC(N)=O)NC(=O)[C@H](CO)NC(=O)[C@H](CO)NC(=O)[C@H](Cc1c[nH]cn1)NC(=O)[C@@H](NC(=O)[C@H](CC(C)C)NC(=O)[C@H](Cc1ccccc1)NC(=O)[C@H](CC(N)=O)NC(=O)[C@H](C)NC(=O)[C@H](CC(C)C)NC(=O)[C@H](CCCNC(=N)N)NC(=O)[C@H](CCC(N)=O)NC(=O)[C@@H](NC(=O)[C@H](C)NC(=O)[C@@H]1CSSC[C@H](NC(=O)[C@@H](N)CCCCN)C(=O)N[C@@H](CC(N)=O)C(=O)N[C@@H]([C@@H](C)O)C(=O)N[C@@H](C)C(=O)N[C@@H]([C@@H](C)O)C(=O)N1)[C@@H](C)O)C(C)C)C(=O)N[C@@H](CC(C)C)C(=O)N[C@@H](CO)C(=O)N[C@@H](CO)C(=O)N[C@H](C(=O)N[C@@H](CC(N)=O)C(=O)N[C@H](C(=O)NCC(=O)N[C@@H](CO)C(=O)N[C@@H](CC(N)=O)C(=O)N[C@H](C(=O)N[C@@H](Cc1ccc(O)cc1)C(N)=O)[C@@H](C)O)C(C)C)[C@@H](C)O` [G24P‐hIAPP], the “Apparent solubility: amount of peptide remaining in the solution” value (pH 7.4, stood 7 days at room temperature) is “greater than 50 μM”.
